Assay results as given in article PMC7898795 (Angewandte Chemie (International Ed. in English), 2020).
Values after ≈ are worked out from the molar mass of the structure shown.

Test: Water solubility assay
Format: physicochemical
Conditions: for solubility thermodynamic at 24 h: thermodynamic from solid
[1] = 50 mM TEAA buffer, pH 7.9, aqueous buffer

Row | solubility thermodynamic at 24 h [1] | solubility thermodynamic at 24 h (ddH2O, water) | times more water-soluble than thiostrepton, in 50 mM TEAA (pH 7.9) (ratio of solubility to that of thiostrepton in 50 mM TEAA pH 7.9) | times more water-soluble than thiostrepton, in ddH2O (ratio of solubility to that of thiostrepton in ddH2O) | SMILES
1 | 5 ± 0.2 µg/mL (≈ 3 µM) | 6.4 ± 0.1 µg/mL (≈ 3.84 µM) | – | – | C=C(NC(=O)C(=C)NC(=O)c1csc(C2=N[C@@H]3c4csc(n4)[C@H]4NC(=O)c5csc(n5)[C@H]([C@](C)(O)[C@@H](C)O)NC(=O)[C@H]5CSC(=N5)/C(=C/C)NC(=O)[C@H]([C@@H](C)O)NC(=O)c5csc(n5)[C@]3(CC2)NC(=O)[C@H](C)NC(=O)C(=C)NC(=O)[C@H](C)NC(=O)[C@H]([C@@H](C)CC)N[C@@H]2C=Cc3c([C@H](C)O)cc(nc3[C@H]2O)C(=O)O[C@@H]4C)n1)C(N)=O [Thiostrepton, thiostrepton, reference compound]
2 | 422 ± 8.5 µg/mL (≈ 240 µM) | 170 ± 2.6 µg/mL (≈ 96.6 µM) | 84 × | 27 × | C=C1NC(=O)[C@H](C)NC(=O)[C@H]([C@@H](C)CC)N[C@@H]2C=Cc3c([C@H](C)O)cc(nc3[C@H]2O)C(=O)O[C@H](C)[C@@H]2NC(=O)c3csc(n3)[C@H]([C@](C)(O)[C@@H](C)O)NC(=O)[C@H]3CSC(=N3)/C(=C/C)NC(=O)[C@H]([C@@H](C)O)NC(=O)c3csc(n3)[C@]3(CCC(c4nc(C(=O)NC(CB(O)O)C(=O)NC(CB(O)O)C(N)=O)cs4)=N[C@@H]3c3csc2n3)NC(=O)[C@H](C)NC1=O (stereo partly drawn) [compound 3]
